Data: PMC7429318 (Journal of controlled release : official journal of the …, 2020)

Test system: MDCKII cells
Assay: Transwell permeability assay across MDCKII monolayer
Assay type: in vitro ADME, canine
Conditions: transwell (2D), LY 100 μM

## Lucifer yellow CH-lithium salt [LY]
  permeability in transwell assay (2D): about 3 × 10^−7 cm s^−1
